In US9815835B2, “Substituted polycyclic carbamolypyridone derivative” (priority 2009, dated 2017):

Columns and labels:
influenza virus = test: microbe, parasite or virus in culture; type: cell-based, influenza virus (MDBK or MDCK cells); details: unidentified influenza virus, 72 h, read-out: CPE EC50, effective concentration to achieve 50% CPE inhibition, 3 days incubation, WST-8
[1] = molecular target: cap-dependent endonuclease (RNP fraction containing PB1•PB2•PA complex) (Influenza A virus, UniProt P15659); test: biochemical; details: RNP from A/WSN/33 virus, capped Cy3/BHQ2 30mer RNA substrate, 60 minutes at room temperature; read-out: CEN IC50

| SMILES | EC50 (influenza virus) | IC50 [1] |
| --- | --- | --- |
| COCCN1C[C@H](C(c2ccccc2)c2ccccc2)n2cc(C(=O)O)c(=O)c(O)c2C1=O [Example 2] | 293 nM | 48 nM |
| CCN1C[C@H](C(c2ccccc2)c2ccccc2)n2cc(C(=O)O)c(=O)c(O)c2C1=O [Example 14] | 313 nM | 43 nM |
| O=C(O)c1cn2c(c(O)c1=O)C(=O)N(CC1CCCCO1)C[C@@H]2C(c1ccccc1)c1ccccc1 (stereo partly shown) [Example 26] | 547 nM | 108 nM |
| O=C1c2c(O)c(=O)ccn2[C@@H](C(c2ccccc2)c2ccccc2)CN1Cc1ccccc1 [Example 37] | 318 nM | 101 nM |
| COCCN1C[C@H](C(c2ccccc2)c2ccccc2)n2cc(CO)c(=O)c(O)c2C1=O [Example 48] | – | 87 nM |
| COCCN1C[C@H](C(c2ccccc2)c2ccccc2)n2cc(N)c(=O)c(O)c2C1=O [Example 56] | – | 358 nM |
| COCCN1C[C@H](C(c2ccccc2)c2ccccc2)n2cc(OC)c(=O)c(O)c2C1=O [Example 62] | – | 110 nM |
| COCCN1CN(C(c2ccccc2)c2ccccc2)n2cc(C(=O)O)c(=O)c(O)c2C1=O [Example 94] | – | 96 nM |
| COCCN1CN(Cc2ccccc2-c2ccccc2)n2ccc(=O)c(O)c2C1=O [Example 99] | – | 341 nM |
| O=C1c2c(O)c(=O)ccn2N(C2c3ccccc3CCc3ccccc32)CN1C1CC1 [Example 108] | 19 nM | 37 nM |
| CN(CCN1CN(C(c2ccccc2)c2ccccc2)n2ccc(=O)c(O)c2C1=O)S(=O)(=O)c1ccccc1 [Example 138] | – | 166 nM |
| CN(CCN1CN(C(c2ccccc2)c2ccccc2)n2ccc(=O)c(O)c2C1=O)S(C)(=O)=O [Example 139] | 741 nM | 189 nM |
| O=C1c2c(O)c(=O)ccn2N(C(c2ccccc2)c2ccccc2)CN1CCNS(=O)(=O)c1ccccc1 [Example 143] | 333 nM | 224 nM |
| O=C(NCCN1CN(C(c2ccccc2)c2ccccc2)n2ccc(=O)c(O)c2C1=O)c1ccccc1 [Example 150] | – | 193 nM |
| O=C1c2c(O)c(=O)ccn2C(C(c2ccccc2)c2ccccc2)N2CCCCN12 (stereo not shown) [Example 178] | 75 nM | 61 nM |
| O=C(O)c1cn2c(c(O)c1=O)C(=O)N(CCOc1ccc(F)cc1)C[C@@H]2C(c1ccccc1)c1ccccc1 [Example 183] | 2370 nM | 74 nM |
| O=C(O)c1cn2c(c(O)c1=O)C(=O)N(CC(F)(F)F)C[C@@H]2C(c1ccccc1)c1ccccc1 [Example 185] | 1920 nM | 132 nM |
| O=C1c2c(O)c(=O)ccn2N(Cc2csc3ccc(Cl)cc23)CN1Cc1ccc(F)cc1 [Example 191] | 2820 nM | 238 nM |
| CC(C)N1CN(Cc2cccc3ccsc23)n2ccc(=O)c(O)c2C1=O [Example 204] | 2360 nM | 299 nM |
| O=C1c2c(O)c(=O)ccn2N(C(c2ccccc2)c2ccccc2)CN1C1CCOC1 (stereo not shown) [Example 224] | 119 nM | 276 nM |
| CN1CCC(N2CN(C(c3ccccc3)c3ccccc3)n3ccc(=O)c(O)c3C2=O)CC1 [Example 225] | 663 nM | 283 nM |
| CCC(COC)N1CN(C(c2ccccc2)c2ccccc2)n2ccc(=O)c(O)c2C1=O (stereo not shown) [Example 228] | 141 nM | 243 nM |
| CCOC(=O)CC(C)N1CN(C(c2ccccc2)c2ccccc2)n2ccc(=O)c(O)c2C1=O (stereo not shown) [Example 230] | 525 nM | 282 nM |

| SMILES | EC50 (influenza virus) | IC50 [1] |
| --- | --- | --- |
| CNC(=O)C(C)N1CN(C(c2ccccc2)c2ccccc2)n2ccc(=O)c(O)c2C1=O (stereo not shown) [Example 233] | 2240 nM | 228 nM |
| CC(CC(=O)Nc1ccccc1)N1CN(C(c2ccccc2)c2ccccc2)n2ccc(=O)c(O)c2C1=O (stereo not shown) [Example 238] | 440 nM | 101 nM |
| CC(C)N1CN(C(c2ccccc2Cl)c2ccccc2Cl)n2ccc(=O)c(O)c2C1=O [Example 240] | 48 nM | 37 nM |
| CC(N1CN(C(c2ccccc2)c2cccc(Cl)c2)n2ccc(=O)c(O)c2C1=O)C(F)(F)F (stereo not shown) [Example 241] | 63 nM | 197 nM |
| CC(C)N1CN(C(c2cccs2)c2cccs2)n2ccc(=O)c(O)c2C1=O [Example 244] | 108 nM | 249 nM |
| CC(C)N1CN(C2c3ccc(Cl)cc3CCc3cc(Cl)ccc32)n2ccc(=O)c(O)c2C1=O [Example 246] | 26 nM | 82 nM |
| CN1CC[C@H](N2CN(C3c4ccccc4CCc4ccccc43)n3ccc(=O)c(O)c3C2=O)C1 [Example 247] | 2260 nM | 282 nM |
| CC(C)CN1CC(N2CN(C3c4ccccc4CCc4ccccc43)n3ccc(=O)c(O)c3C2=O)C1 [Example 248] | 489 nM | 103 nM |
| CC(C)N1CC(N2CN(C3c4ccccc4CCc4ccccc43)n3ccc(=O)c(O)c3C2=O)C1 [Example 249] | 1890 nM | 151 nM |
| CN1CC[C@@H](N2CN(C3c4ccccc4CCc4ccccc43)n3ccc(=O)c(O)c3C2=O)C1 [Example 250] | 476 nM | 113 nM |
| CS(=O)(=O)N1CC[C@@H](N2CN(C3c4ccccc4CCc4ccccc43)n3ccc(=O)c(O)c3C2=O)C1 [Example 251] | 157 nM | 58 nM |
| CC(C)N1CC[C@@H](N2CN(C3c4ccccc4CCc4ccccc43)n3ccc(=O)c(O)c3C2=O)C1 [Example 252] | 454 nM | 107 nM |
| CN1CCC(N2CN(C3c4ccccc4CCc4ccccc43)n3ccc(=O)c(O)c3C2=O)CC1 [Example 253] | 280 nM | 235 nM |
| O=C1c2c(O)c(=O)ccn2N(C2c3ccccc3CCc3ccccc32)CN1[C@@H]1CCN(CCO)C1 [Example 254] | 564 nM | 135 nM |
| Cc1cc(CN2CN(C3c4ccccc4CCc4ccccc43)n3ccc(=O)c(O)c3C2=O)no1 [Example 255] | 319 nM | 52 nM |
| O=C1c2c(O)c(=O)ccn2N(C2c3ccccc3CCc3ccccc32)CN1CCCF [Example 257] | 55 nM | 41 nM |
| O=C1c2c(O)c(=O)ccn2N(C2c3ccccc3CCc3ccccc32)CN1CC(F)F [Example 259] | 26 nM | 66 nM |
| CCC(COC)N1CN(C2c3ccccc3CCc3ccccc32)n2ccc(=O)c(O)c2C1=O (stereo not shown) [Example 260] | 65 nM | 91 nM |
| O=C1c2c(O)c(=O)ccn2N(C2c3ccccc3CCc3ccccc32)CN1Cc1ccccn1 [Example 264] | 128 nM | 64 nM |
| CCN1CN(C2c3ccccc3CCc3ccccc32)n2ccc(=O)c(O)c2C1=O [Example 266] | 85 nM | 43 nM |
| CCOCCN1CN(C2c3ccccc3CCc3ccccc32)n2ccc(=O)c(O)c2C1=O [Example 268] | 74 nM | 18 nM |
| O=C1c2c(O)c(=O)ccn2N(C2c3ccccc3CCc3ccccc32)CN1Cc1nccs1 [Example 271] | 102 nM | 73 nM |
| COCC(COC)N1CN(C2c3ccccc3CCc3ccccc32)n2ccc(=O)c(O)c2C1=O [Example 272] | – | 82 nM |

| SMILES | EC50 (influenza virus) | IC50 [1] |
| --- | --- | --- |
| CN1CN(C2c3ccccc3CCc3ccccc32)n2ccc(=O)c(O)c2C1=O [Example 273] | 84 nM | 16 nM |
| O=C1c2c(O)c(=O)ccn2N(C2c3ccccc3CCc3ccccc32)CN1CCOC(F)(F)F [Example 277] | 71 nM | 39 nM |
| COc1ccc2c(c1)CCc1ccccc1C2N1CN(C(C)C)C(=O)c2c(O)c(=O)ccn21 (stereo not shown) [Example 278] | 74 nM | 205 nM |
| CC(C)N1CN(C2c3cc(Cl)ccc3CCc3ccc(Cl)cc32)n2ccc(=O)c(O)c2C1=O [Example 280] | 145 nM | 68 nM |
| CC(C)N1CN(C2c3cccc(F)c3CCc3c(F)cccc32)n2ccc(=O)c(O)c2C1=O [Example 281] | 18 nM | 26 nM |
| CC(C)N1CN(C2c3ccccc3CCc3cc(Cl)ccc32)n2ccc(=O)c(O)c2C1=O (stereo not shown) [Example 283] | 21 nM | 28 nM |
| CC(C)N1CN(C2c3cc(F)ccc3SCc3c(Cl)cccc32)n2ccc(=O)c(O)c2C1=O (stereo not shown) [Example 285] | 17 nM | 44 nM |
| O=C1c2c(O)c(=O)ccn2N(C2c3ccccc3CSc3ccccc32)CN1C1CCC(F)(F)CC1 (stereo not shown) [Example 313] | – | 189 nM |
| COCCN1CN(C2c3ccccc3CSc3c(F)cccc32)n2ccc(=O)c(O)c2C1=O (stereo not shown) [Example 336] | – | 51 nM |
| COCC(COC)N1CN(C2c3ccccc3CSc3c(F)cccc32)n2ccc(=O)c(O)c2C1=O (stereo not shown) [Example 339] | – | 183 nM |
| CN1CN(C2c3ccccc3CSc3cc(Cl)ccc32)n2ccc(=O)c(O)c2C1=O (stereo not shown) [Example 348] | – | 54 nM |
| CC(C)N1CN(C2c3ccccc3CSc3cc(F)ccc32)n2ccc(=O)c(O)c2C1=O (stereo not shown) [Example 352] | – | 67 nM |
| Cc1cccc2c1SCc1ccccc1C2N1CN(C(C)C)C(=O)c2c(O)c(=O)ccn21 (stereo not shown) [Example 356] | – | 66 nM |
| COCCN1CN(C2c3ccccc3COc3c(Cl)cccc32)n2ccc(=O)c(O)c2C1=O (stereo not shown) [Example 396] | – | 56 nM |
| C[C@@H](N1CN([C@@H]2c3ccccc3SCc3c(Cl)cccc32)n2ccc(=O)c(O)c2C1=O)C(F)(F)F [Example 417] | – | 30 nM |
| C[C@@H](N1CN([C@H]2c3ccc(F)cc3CSc3ccccc32)n2ccc(=O)c(O)c2C1=O)C(F)(F)F [Example 454] | – | 12 nM |
| C[C@@H](N1CN([C@@H]2c3ccccc3SCc3c(Br)cccc32)n2ccc(=O)c(O)c2C1=O)C(F)(F)F [Example 463] | – | 12 nM |
| C[C@@H](N1CN([C@H]2c3cccc(F)c3CSc3c(F)cccc32)n2ccc(=O)c(O)c2C1=O)C(F)(F)F [Example 469] | – | 16 nM |
| C[C@@H](N1CN([C@H]2c3ccc(F)cc3CSc3c(F)cccc32)n2ccc(=O)c(O)c2C1=O)C(F)(F)F [Example 470] | – | 8 nM |
| CC(=O)N(C)CC1N(C(C)C)C(=O)c2c(O)c(=O)ccn2N1C1c2ccccc2CCc2ccccc21 (stereo not shown) [Example 525] | – | 141 nM |
| CC(C)C1N(CCO)C(=O)c2c(O)c(=O)ccn2N1C1c2ccccc2CCc2ccccc21 (stereo not shown) [Example 553] | – | 28 nM |
